Consider six compounds from ChEMBL document CHEMBL1127925, “Synthesis and in vitro antibacterial activity of new semi-synthetic noviosylcoumarin antibiotics: chemical modification at the C-3 ester” (1994).

Values after ≈ are worked out from the molar mass of the structure shown.

What all share (type): functional
Test [1] concerns Staphylococcus aureus. Briefly: In vitro antibacterial activity against Staphylococcus aureus A9537 was determined.
Test [2] deals with Staphylococcus aureus. The experiment in a line: In vitro antibacterial activity against Staphylococcus aureus A20700 was determined.
The test system of test [3] is Staphylococcus epidermidis. Briefly: In vitro antibacterial activity against Staphylococcus epidermidis A25441 was determined.

Turning to `COC1C(OC(=O)c2ccc(C)s2)C(O)C(Oc2ccc3c(O)c(NC(=O)c4ccccc4)c(=O)oc3c2C)OC1(C)C` (stereo not drawn), the MIC in test [1] came out at 0.03 µg/mL (≈ 0.0492 µM); in test [2], 4 µg/mL (≈ 6.56 µM); in test [3] it was 8 µg/mL (≈ 13.1 µM).
With `COC1C(OC(=O)c2ccc(C)[nH]2)C(O)C(Oc2ccc3c(O)c(NC(=O)c4ccccc4)c(=O)oc3c2C)OC1(C)C` (stereo not drawn), the MIC in test [1], in test [2] and in test [3] was 0.13 µg/mL (≈ 0.219 µM) in each case.
Take `COC1C(OC(=O)c2ccco2)C(O)C(Oc2ccc3c(O)c(NC(=O)c4ccccc4)c(=O)oc3c2C)OC1(C)C` (stereo not drawn): the MIC in test [1], in test [2] and in test [3] was 8 µg/mL (≈ 13.8 µM) throughout.
On to `COC1C(OC(=O)c2cccn2C)C(O)C(Oc2ccc3c(O)c(NC(=O)c4ccccc4)c(=O)oc3c2C)OC1(C)C` (stereo not drawn), for which the MIC in test [1] came to 2 µg/mL (≈ 3.37 µM); in test [2], 8 µg/mL (≈ 13.5 µM); in test [3] it was 8 µg/mL (≈ 13.5 µM).
Regarding `COC1C(OC(=O)c2c(C)ncn2Cc2ccccc2)C(O)C(Oc2ccc3c(O)c(NC(=O)c4ccccc4)c(=O)oc3c2C)OC1(C)C` (stereo not drawn), the MIC in test [1] is 8 µg/mL (≈ 11.7 µM); in test [2] it was 4 µg/mL (≈ 5.85 µM); in test [3], 2 µg/mL (≈ 2.93 µM).
Turning to `COC1C(OC(=O)c2[nH]cnc2C)C(O)C(Oc2ccc3c(O)c(NC(=O)c4ccccc4)c(=O)oc3c2C)OC1(C)C.Cc1ccc(S(=O)(=O)O)cc1` (stereo not drawn), the MIC in test [1] worked out at 16 µg/mL; in test [2], 16 µg/mL; in test [3], 8 µg/mL.

In general, MIC refers to the least concentration at which growth counts as inhibited.
